Test system: 695427-040-R-J1-PDC complex spheroids, viability percent T/C
Assay: Anticancer human tumor 695427-040-R-J1-PDC patient-derived colon adenocarcinoma cell line growth inhibition [GQUAD]
Details: for IC50: curve of first compound; for viability, T/C: stronger effect = lower value
From the text: DNA G-quadruplex Stabilizer Agents in Combinations in Complex Spheroids
A high-throughput screen of multi-cell type tumor spheroids was designed to identify active combinations of DNA G-quadruplex stabilizer agents and targeted small molecules. Complex spheroids include a stromal component modeled by human endothelial cells (HUVEC) and fibroblasts modeled by human mesenchymal stem cells (MSCs). The concentration ranges selected for each drug and investigational agent were based upon clinically achievable concentrations if the clinical Cmax of the agent was known.
Compounds. The drugs and investigational agents: pidnarulex (CX-5461; NSC782164), APTO-253 (NSC789042), BRACO-19 (NSC847499), peposertib (NSC802822), ceralasertib (NSC780249), elimusertib (NSC800525), camonsertib (NSC841442), AZD-1390 (NSC803789), olaparib (NSC753686), talazoparib (NSC767125), ART-558 (NSC835418), sotorasib (NSC818433), MRTX-1133 (NSC836407), SN-38 (NSC673596), topotecan (NSC609699), etoposide (NSC141540), doxorubicin (NSC123127), gemcitabine (NSC613327), 5-fluorouracil (NSC19893), paclitaxel (NSC125973), vemurafenib (NSC761431), panobinostat (NSC761190), R-306465 (JNJ-16241199; NSC773264), adavosertib (NSC754352), TP-3654 (NSC805149), carboplatin (NSC241240), KSQ-4279 (NSC840948), and staurosporine (NSC755774) were obtained from the National Cancer Institute (NCI) Developmental Therapeutics Program Chemical Repository (34). The FDA-approved anticancer drug set is available from the NCI Developmental Therapeutics Program. […] The stock solutions were prepared in dimethyl sulfoxide (DMSO, Sigma-Aldrich, St. Louis, MO, cat. D2650) at 800-fold the tested concentration and stored at -70 degrees C prior to their use. All drugs and investigational agents were tested over a range starting from a high concentration at or near the clinical Cmax and decreasing in half-log increments. If the clinical Cmax for an agent had not been determined, the highest concentration tested was 10 microM.
2.3 Cell Culture. All cells were maintained in an incubator at 37 degrees C and 5% CO2 with 95% humidity. The PDC lines were cultured according to standard operating procedures established by the NCI PDMR. All PDCs were thawed and cultured in Matrigel-coated flasks prepared with a working solution of 1X Ham's F-12 nutrient mix, without supplementation (Invitrogen, cat. 11765054), 100 U/mL penicillin-streptomycin (Invitrogen, cat. 15140122), and 2.5% Matrigel (Corning Inc., cat. 354248) for the first three passages. The 857933-349-R-J2-PDC line was cultured in 6C/Colon 1B media, which includes advanced DMEM/F-12 (Thermo Fisher Scientific, cat. 12634028), 10 mM HEPES (Thermo Fisher Scientific, cat. 15630080), 1X GlutaMAX supplement (Thermo Fisher Scientific, cat. 35050061), 0.1 mg/mL primocin (InvivoGen, cat. ant-pm-2), 10% defined fetal bovine serum, heat inactivated (HyClone Laboratories Inc., cat. SH30070.03HI), 50% L-WRN conditioned media (ATCC, cat. CRL-3276), 1.25 mM N-Acetyl-L-cysteine (Sigma-Aldrich, cat. A9165), 10 mM nicotinamide (Sigma-Aldrich, cat. N0636), 1X B-27 supplement (Thermo Fisher Scientific, cat. 17504044), 1X N-2 supplement (Thermo Fisher Scientific, cat. 17502048), 10 microM Y-27632 dihydrochloride (Tocris Bioscience, cat. 1254), and 50 ng/mL human EGF recombinant protein (Thermo Fisher Scientific, cat. PHG0311). The 485176-168-R4-J1-PDC line was cultured in Panc media, which includes all 6C/Colon 1B media components plus 100 ng/mL human FGF-10 (Thermo Fisher Scientific, cat. 100-26), 500 nM SB-431542 (Selleckchem, cat. S1067), and gastrin (Tocris, cat. 3006).
[…]

[1] = second compound 0.0316 µM, first compound 0.0316 µM
[2] = second compound 0.0316 µM, first compound 0.1 µM
[3] = second compound 0.0316 µM, first compound 0.316 µM
[4] = second compound 0.0316 µM, first compound 1 µM
[5] = second compound 0.0316 µM, first compound 3.16 µM
[6] = second compound 0.0316 µM, first compound 10 µM
[7] = second compound 0.1 µM, first compound 0.0316 µM
[8] = second compound 0.1 µM, first compound 0.1 µM
[9] = second compound 0.1 µM, first compound 0.316 µM
[10] = second compound 0.1 µM, first compound 1 µM
[11] = second compound 0.1 µM, first compound 3.16 µM
[12] = second compound 0.1 µM, first compound 10 µM
[13] = second compound 0.316 µM, first compound 0.0316 µM
[14] = second compound 0.316 µM, first compound 0.1 µM
[15] = second compound 0.316 µM, first compound 0.316 µM
[16] = second compound 0.316 µM, first compound 1 µM
[17] = second compound 0.316 µM, first compound 3.16 µM
[18] = second compound 0.316 µM, first compound 10 µM
[19] = second compound 1 µM, first compound 0.0316 µM
[20] = second compound 1 µM, first compound 0.1 µM
[21] = second compound 1 µM, first compound 0.316 µM
[22] = second compound 1 µM, first compound 1 µM
[23] = second compound 1 µM, first compound 3.16 µM
[24] = second compound 1 µM, first compound 10 µM
[25] = second compound 3.16 µM, first compound 0.0316 µM
[26] = second compound 3.16 µM, first compound 0.1 µM
[27] = second compound 3.16 µM, first compound 0.316 µM
[28] = second compound 3.16 µM, first compound 1 µM
[29] = second compound 3.16 µM, first compound 3.16 µM
[30] = second compound 3.16 µM, first compound 10 µM
[31] = second compound 10 µM, first compound 0.0316 µM
[32] = second compound 10 µM, first compound 0.1 µM
[33] = second compound 10 µM, first compound 0.316 µM
[34] = second compound 10 µM, first compound 1 µM
[35] = second compound 10 µM, first compound 3.16 µM
[36] = second compound 10 µM, first compound 10 µM
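Also: spheroids exposed to compounds for seven days before readout.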

For `CC1COCCN1c1cc(-c2ccnn2C)c2ccnc(-c3ccn[nH]3)c2n1` (centres undefined) + CN(C)c1ccc(Nc2c3ccc(NC(=O)CCN4CCCC4)cc3nc3cc(NC(=O)CCN4CCCC4)ccc23)cc1, the IC50 (second compound 0.0316 µM) was 1250 nM, the IC50 (second compound 0.1 µM) was 1360 nM and the IC50 (second compound 0.316 µM) was 1240 nM. The IC50 (second compound 1 µM) was 942 nM, the IC50 (second compound 3.16 µM) was 749 nM and the IC50 (second compound 10 µM) was 454 nM. For the same compound, the viability, T/C [1] was 95.2%, the viability, T/C [2] was 78.8% and the viability, T/C [3] was 63%. The viability, T/C [4] was 51%, the viability, T/C [5] was 44.9% and the viability, T/C [6] was 39.4%. For the same compound, the viability, T/C [7] was 100%, the viability, T/C [8] was 75.9% and the viability, T/C [9] was 63.9%. For the same compound, the viability, T/C [10] was 52%, the viability, T/C [11] was 45.3% and the viability, T/C [12] was 39.1%. For the same compound, the viability, T/C [13] was 87.7%, the viability, T/C [14] was 76.3% and the viability, T/C [15] was 56.3%. The viability, T/C [16] was 49.3%, the viability, T/C [17] was 46.8% and the viability, T/C [18] was 42.4%. It also gave a viability, T/C [19] of 96.7%, a viability, T/C [20] of 81.9% and a viability, T/C [21] of 60.3%. The viability, T/C [22] was 49.7%, the viability, T/C [23] was 45.9% and the viability, T/C [24] was 39.1%. It also gave a viability, T/C [25] of 89.3%, a viability, T/C [26] of 74.5% and a viability, T/C [27] of 55.5%. For the same compound, the viability, T/C [28] was 48.9%, the viability, T/C [29] was 43.8% and the viability, T/C [30] was 39.9%. It also gave a viability, T/C [31] of 86%, a viability, T/C [32] of 66.1% and a viability, T/C [33] of 50.5%. It also gave a viability, T/C [34] of 46.8%, a viability, T/C [35] of 40.2% and a viability, T/C [36] of 37%.

Work on `CC1COCCN1c1cc(C2(O)CC3CCC(C2)O3)c2cnn(-c3ccn[nH]3)c2n1` (centres undefined) + CN(C)c1ccc(Nc2c3ccc(NC(=O)CCN4CCCC4)cc3nc3cc(NC(=O)CCN4CCCC4)ccc23)cc1 yielded an IC50 (second compound 0.0316 µM) of 2300 nM, an IC50 (second compound 0.1 µM) of 2040 nM and an IC50 (second compound 0.316 µM) of 2010 nM. For the same compound, the IC50 (second compound 1 µM) was 2270 nM, the IC50 (second compound 3.16 µM) was 1540 nM and the IC50 (second compound 10 µM) was 873 nM. For the same compound, the viability, T/C [1] was 105%, the viability, T/C [2] was 79.7% and the viability, T/C [3] was 73.6%. The viability, T/C [4] was 55.5%, the viability, T/C [5] was 48% and the viability, T/C [6] was 39.6%. It also gave a viability, T/C [7] of 100%, a viability, T/C [8] of 81.9% and a viability, T/C [9] of 69.4%. The viability, T/C [10] was 57.2%, the viability, T/C [11] was 45.4% and the viability, T/C [12] was 38.1%. It also gave a viability, T/C [13] of 89.3%, a viability, T/C [14] of 87.1% and a viability, T/C [15] of 70.3%. For the same compound, the viability, T/C [16] was 57.4%, the viability, T/C [17] was 46.4% and the viability, T/C [18] was 39%. It also gave a viability, T/C [19] of 91.3%, a viability, T/C [20] of 80.7% and a viability, T/C [21] of 67.1%. The viability, T/C [22] was 53.9%, the viability, T/C [23] was 50.9% and the viability, T/C [24] was 38.6%. The viability, T/C [25] was 81.9%, the viability, T/C [26] was 78.1% and the viability, T/C [27] was 69.9%. It also gave a viability, T/C [28] of 51.8%, a viability, T/C [29] of 46.1% and a viability, T/C [30] of 37.5%. It also gave a viability, T/C [31] of 83.9%, a viability, T/C [32] of 78.2% and a viability, T/C [33] of 66.9%. The viability, T/C [34] was 46.4%, the viability, T/C [35] was 41.2% and the viability, T/C [36] was 35.5%.

Source: PubChem BioAssay AID2060492 (Molecular Pharmacology Branch, DTP, NCI, 2025)
